Results reported in publication PMC2746281 (PLoS ONE, 2009).

What was measured:
[1] = molecular target: T1, c-Fms (Homo sapiens, UniProt P07333); experiment: Recombinant kinase ELISA assay, c-Fms; type: biochemical; conditions: recombinant human enzyme; ELISA-based assay, poly(Glu,Tyr 4:1) substrate
T1 construct: c-Fms (538–972; BC047531); 6xHN (N); made in house; host or cells: baculovirus, Sf9 insect cells
Procedure: (§1) Full details for the generation of recombinant human KIT intracellular domain and other protein kinases (including Lyn, platelet derived growth factor receptor β, epidermal growth factor receptor, fibroblast growth factor receptor 1, Src, HCK, PYK, FES, Btk, Bmx, c-Ret, c-Fms, Syk, and c-Met) are provided in the Supplemental Methods (see Supporting Information; Methods S1). Experiments on ABL1, Akt1, protein kinase C-α, insulin-like growth factor receptor 1, and Pim1 were carried out by Proqinase (Germany). All other recombinant protein kinases were performed in-house using an enzyme-linked immunoassay; experimental details are provided in the Supplemental Methods (see Supporting Information; Methods S1).
(§2) The sequences encoding PDGF receptor β (residues 554–1106; GenBank accession no. BC032224), Lyn B (2–583; accession no. BC059394), fibroblast growth factor receptor 1 (572–959; accession no. BC018128), Src (2–536; accession no. BC011566), Btk (2–659; accession no. BC109079), Bmx (2–675; accession no. BC016652), c-Ret (713–1114; accession no. BC004257), c-Fms (538–972; BC047531), Syk (2–612; BC011399), Hck (2-526; accession no. BC014435), Fes (2-822; accession no. BC035357), PYK2 (2-1006; accession no. BC042599) and c-Met (949–1398; accession no. lifeseq3489592) were amplified by PCR from IMAGE cDNA clones purchased from Openbiosystems. […]

[2] = molecular target: T2, c-Ret (Homo sapiens, UniProt P07949); experiment: Recombinant kinase ELISA assay, c-Ret; type: biochemical; conditions: recombinant human enzyme; ELISA-based assay, poly(Glu,Tyr 4:1) substrate
T2 construct: c-Ret (713–1114; BC004257); 6xHN (N); made in house; host or cells: baculovirus, Sf9 insect cells
T2 sequence (P07949 713-1072 isoform P07949-2): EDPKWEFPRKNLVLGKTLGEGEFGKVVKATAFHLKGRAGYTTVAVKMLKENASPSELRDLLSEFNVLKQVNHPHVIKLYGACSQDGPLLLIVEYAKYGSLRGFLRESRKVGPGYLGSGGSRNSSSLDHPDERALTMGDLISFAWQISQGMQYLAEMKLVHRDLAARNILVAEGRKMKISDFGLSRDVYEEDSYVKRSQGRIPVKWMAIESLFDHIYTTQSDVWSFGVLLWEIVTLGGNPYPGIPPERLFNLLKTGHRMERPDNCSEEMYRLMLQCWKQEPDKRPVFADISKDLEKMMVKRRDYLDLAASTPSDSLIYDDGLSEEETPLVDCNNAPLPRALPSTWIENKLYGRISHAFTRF
Procedure: as §1, §2

[3] = molecular target: T3, Syk (Homo sapiens, UniProt P43405); experiment: Recombinant kinase ELISA assay, Syk; type: biochemical; conditions: recombinant human enzyme; ELISA-based assay, poly(Glu,Tyr 4:1) substrate
T3 construct: Syk (2–612; BC011399); 6xHN (N); made in house; host or cells: baculovirus, Sf9 insect cells
Procedure: as §1, §2

[4] = molecular target: Fibroblast growth factor receptor 3 (Homo sapiens, UniProt P22607); experiment: Ba/F3 cell proliferation (WST-1), FGFR3; conditions: Ba/F3 cells expressing the enzyme, read-out: Cell-based assay IC50, Fibroblast growth factor receptor 3
Chain of Fibroblast growth factor receptor 3 (P22607 23-806): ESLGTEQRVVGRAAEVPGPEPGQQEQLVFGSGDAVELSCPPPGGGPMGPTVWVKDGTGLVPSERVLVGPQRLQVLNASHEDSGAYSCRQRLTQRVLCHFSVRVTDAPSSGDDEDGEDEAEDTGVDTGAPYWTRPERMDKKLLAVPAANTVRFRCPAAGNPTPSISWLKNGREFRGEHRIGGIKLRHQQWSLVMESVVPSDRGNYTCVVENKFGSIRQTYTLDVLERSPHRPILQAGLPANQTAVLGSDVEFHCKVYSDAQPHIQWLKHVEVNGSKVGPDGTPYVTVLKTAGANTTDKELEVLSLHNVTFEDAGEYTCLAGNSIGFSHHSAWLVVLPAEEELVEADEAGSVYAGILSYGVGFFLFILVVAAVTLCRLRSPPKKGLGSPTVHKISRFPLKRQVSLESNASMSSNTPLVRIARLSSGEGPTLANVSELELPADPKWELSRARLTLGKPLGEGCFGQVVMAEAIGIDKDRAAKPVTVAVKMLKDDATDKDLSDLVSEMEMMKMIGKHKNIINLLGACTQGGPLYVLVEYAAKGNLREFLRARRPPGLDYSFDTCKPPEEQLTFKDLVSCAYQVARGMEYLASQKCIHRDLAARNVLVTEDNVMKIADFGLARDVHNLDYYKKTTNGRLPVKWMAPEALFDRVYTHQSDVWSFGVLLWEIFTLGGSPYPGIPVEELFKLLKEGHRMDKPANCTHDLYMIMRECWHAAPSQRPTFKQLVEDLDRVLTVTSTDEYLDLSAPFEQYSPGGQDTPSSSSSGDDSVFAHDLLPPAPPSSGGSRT

[5] = tested on: CBMC; experiment: CBMC cell viability; type: cell-based, human; conditions: incubation of CBMC for up to 9 hours
[6] = tested on: primary BMMCs from mice expressing wild-type KIT; experiment: SCF-stimulated proliferation and KIT tyrosine phosphorylation in primary BMMCs; type: cell-based; conditions: Mus musculus, BMMC, primary murine BMMCs, read-out: IC50, SCF-stimulated cell proliferation and tyrosine phosphorylation of KIT in BMMCs
Procedure: (B) western blotting analysis of HMC-1α155 tyrosine phosphorylation. […] (D) Western blotting analysis of BMMC tyrosine phosphorylation. Cell proliferation was assessed by WST-1 colorimetric assay. […] MW = molecular weight.

[7] = tested on: cultured human lymphocytes; experiment: Chromosome aberration test in cultured human lymphocytes; type: cell-based; conditions: our unpublished results
[8] = tested on: mouse lymphoma; experiment: Mouse lymphoma assay; type: cell-based; conditions: our unpublished results
[9] = tested on: mastocytoma cell lines carrying KIT juxtamembrane mutants; experiment: Proliferation of mastocytoma cell lines carrying KIT juxtamembrane mutants (summary); type: cell-based; conditions: summary over cell lines
[10] = molecular target: TrkB (Homo sapiens, UniProt Q16620); conditions: read-out: Cell-based assay IC50, TrkB; Ba/F3 cells expressing the enzyme; cell proliferation, WST-1
Chain of TrkB (Q16620 32-822, species assumed): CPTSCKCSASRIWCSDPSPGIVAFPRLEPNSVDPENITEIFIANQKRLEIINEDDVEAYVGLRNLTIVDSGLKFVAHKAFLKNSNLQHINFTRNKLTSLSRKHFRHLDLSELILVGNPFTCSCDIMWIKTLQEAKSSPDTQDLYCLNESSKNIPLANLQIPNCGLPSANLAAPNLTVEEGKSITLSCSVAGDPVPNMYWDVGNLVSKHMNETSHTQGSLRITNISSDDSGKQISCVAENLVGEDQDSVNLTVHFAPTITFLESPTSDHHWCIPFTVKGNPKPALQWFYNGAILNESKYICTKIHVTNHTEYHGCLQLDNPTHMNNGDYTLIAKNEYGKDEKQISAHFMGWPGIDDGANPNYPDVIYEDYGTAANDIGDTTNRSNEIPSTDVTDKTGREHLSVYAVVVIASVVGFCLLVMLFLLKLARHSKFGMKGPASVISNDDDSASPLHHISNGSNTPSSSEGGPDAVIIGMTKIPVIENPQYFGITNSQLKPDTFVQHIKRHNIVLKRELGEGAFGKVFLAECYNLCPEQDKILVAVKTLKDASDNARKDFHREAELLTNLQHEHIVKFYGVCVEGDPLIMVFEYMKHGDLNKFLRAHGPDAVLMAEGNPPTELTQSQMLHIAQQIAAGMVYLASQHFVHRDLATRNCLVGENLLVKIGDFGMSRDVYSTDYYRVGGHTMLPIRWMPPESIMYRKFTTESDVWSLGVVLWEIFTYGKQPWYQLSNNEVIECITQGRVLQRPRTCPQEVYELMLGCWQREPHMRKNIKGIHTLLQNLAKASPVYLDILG

T1 sequence (P07333 538-972): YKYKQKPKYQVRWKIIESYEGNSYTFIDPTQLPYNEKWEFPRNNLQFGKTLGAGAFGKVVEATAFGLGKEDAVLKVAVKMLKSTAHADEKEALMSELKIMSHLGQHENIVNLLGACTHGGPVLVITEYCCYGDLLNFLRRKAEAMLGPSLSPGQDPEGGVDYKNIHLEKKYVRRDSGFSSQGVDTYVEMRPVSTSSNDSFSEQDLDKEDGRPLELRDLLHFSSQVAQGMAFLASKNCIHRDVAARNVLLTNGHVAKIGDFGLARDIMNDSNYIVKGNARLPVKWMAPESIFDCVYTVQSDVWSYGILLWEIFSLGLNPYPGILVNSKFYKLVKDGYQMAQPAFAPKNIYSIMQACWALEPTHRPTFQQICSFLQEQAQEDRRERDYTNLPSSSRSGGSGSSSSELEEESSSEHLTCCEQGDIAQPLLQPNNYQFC

CS(=O)(=O)O.CS(=O)(=O)O.Cc1ccc(NC(=O)c2ccc(CN3CCN(C)CC3)cc2)cc1Nc1nc(-c2cccnc2)cs1 [masitinib, 4-(4-methylpiperazin-1-ylmethyl)-N-[4-methyl-3-(4-pyridin-3ylthiazol-2-ylamino)phenyl]benzamide-mesylate methane sulfonic acid salt]
IC50 [1]: 1.48 ± 0.54 µM
IC50 [2]: > 10 µM
IC50 [3]: > 10 µM
IC50 [4]: 5.5 ± 2.8 µM
effect on cell viability [5]: no affect on cell viability
IC50 [6]: 0.2 ± 0.05 µM
chromosome aberrations [7]: does not cause chromosome aberrations
mutagenicity in a mouse lymphoma assay [8]: not mutagenic
IC50 [9]: 0.01 to 0.03 µM
IC50 [10]: 7 ± 1.9 µM
